Reference: ChEMBL document CHEMBL4184241, “2-Formyl-komarovicine promotes adiponectin production in human mesenchymal stem cells through PPARγ partial agonism” (Bioorg Med Chem, 2018)
Values belong to the compound of their own block, whether it stands above or below them. Active and inactive are the calls of the source. No cut-off for these calls is given here.

What was measured:
Homo sapiens [1] = organism: Homo sapiens; test: Induction of adipogenesis in human bone marrow-derived mesenchymal stem cells assessed as increase in adiponectin production measured on day 5 in presence of IDX by ELISA; assay type: functional
Homo sapiens [2] = organism: Homo sapiens; test: Induction of adipogenesis in human bone marrow-derived mesenchymal stem cells assessed as increase in lipid droplet accumulation at 30 uM measured on day 5 in presence of IDX by ORO staining based spectrophotometric analysis; assay type: functional
[3] = target: T1, Peroxisome proliferator-activated receptor gamma (Homo sapiens) (UniProt P37231); test: Displacement of fluormone Pan-PPAR Green from human GST-tagged PPARgamma-LBD at 10 uM by TR-FRET assay relative to control
T1 sequence (whole entry): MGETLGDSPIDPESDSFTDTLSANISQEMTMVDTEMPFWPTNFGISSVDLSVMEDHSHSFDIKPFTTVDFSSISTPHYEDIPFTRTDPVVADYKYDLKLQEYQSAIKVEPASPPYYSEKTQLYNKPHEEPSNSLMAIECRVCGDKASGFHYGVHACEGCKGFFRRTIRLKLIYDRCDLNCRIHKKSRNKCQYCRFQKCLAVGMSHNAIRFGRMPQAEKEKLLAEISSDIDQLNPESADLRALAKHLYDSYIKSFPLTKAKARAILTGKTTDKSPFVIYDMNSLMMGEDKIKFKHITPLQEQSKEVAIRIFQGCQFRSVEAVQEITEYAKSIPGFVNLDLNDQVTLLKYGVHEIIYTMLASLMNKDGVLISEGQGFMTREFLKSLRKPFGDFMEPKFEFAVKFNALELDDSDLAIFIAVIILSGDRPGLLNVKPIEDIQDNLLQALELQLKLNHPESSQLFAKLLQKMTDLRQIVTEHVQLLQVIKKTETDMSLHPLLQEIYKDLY

[4] = target: T2, Peroxisome proliferator-activated receptor alpha (Homo sapiens) (UniProt Q07869); test: Displacement of fluormone Pan-PPAR Green from human GST-tagged PPARalpha-LBD at 10 uM by TR-FRET assay
T2 sequence (whole entry): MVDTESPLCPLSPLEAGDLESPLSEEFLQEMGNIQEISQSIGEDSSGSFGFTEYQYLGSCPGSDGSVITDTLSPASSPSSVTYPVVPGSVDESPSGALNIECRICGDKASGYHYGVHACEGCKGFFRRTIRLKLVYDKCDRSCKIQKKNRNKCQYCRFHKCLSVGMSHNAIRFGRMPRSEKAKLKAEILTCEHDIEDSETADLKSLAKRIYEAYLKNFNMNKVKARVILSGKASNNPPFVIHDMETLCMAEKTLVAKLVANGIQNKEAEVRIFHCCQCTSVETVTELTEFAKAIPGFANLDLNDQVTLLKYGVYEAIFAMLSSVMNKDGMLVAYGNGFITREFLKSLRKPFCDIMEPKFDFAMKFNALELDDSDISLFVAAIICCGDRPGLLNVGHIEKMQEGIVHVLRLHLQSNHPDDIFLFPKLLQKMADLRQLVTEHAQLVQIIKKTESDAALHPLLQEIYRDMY

[5] = target: T3, Peroxisome proliferator-activated receptor delta (Homo sapiens) (UniProt Q03181); test: Displacement of fluormone Pan-PPAR Green from human GST-tagged PPARdelta-LBD at 10 uM by TR-FRET assay
T3 sequence (whole entry): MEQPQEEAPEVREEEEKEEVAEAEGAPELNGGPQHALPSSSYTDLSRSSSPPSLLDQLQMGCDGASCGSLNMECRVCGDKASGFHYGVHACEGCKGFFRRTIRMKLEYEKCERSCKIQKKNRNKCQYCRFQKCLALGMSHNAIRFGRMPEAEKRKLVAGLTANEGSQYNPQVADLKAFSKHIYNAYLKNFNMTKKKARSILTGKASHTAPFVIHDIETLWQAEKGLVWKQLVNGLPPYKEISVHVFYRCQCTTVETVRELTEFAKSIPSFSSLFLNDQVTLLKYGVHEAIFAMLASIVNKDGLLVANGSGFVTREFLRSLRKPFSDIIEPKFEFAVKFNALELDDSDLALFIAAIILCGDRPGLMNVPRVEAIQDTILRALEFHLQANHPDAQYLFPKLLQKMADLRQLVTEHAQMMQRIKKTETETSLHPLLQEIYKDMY

[6] = target: T4, Glucocorticoid receptor (Homo sapiens) (UniProt P04150); test: Displacement of fluormone GS1 from human GST-tagged glucocorticoid receptor-LBD at 10 uM by TR-FRET assay
T4 sequence (whole entry): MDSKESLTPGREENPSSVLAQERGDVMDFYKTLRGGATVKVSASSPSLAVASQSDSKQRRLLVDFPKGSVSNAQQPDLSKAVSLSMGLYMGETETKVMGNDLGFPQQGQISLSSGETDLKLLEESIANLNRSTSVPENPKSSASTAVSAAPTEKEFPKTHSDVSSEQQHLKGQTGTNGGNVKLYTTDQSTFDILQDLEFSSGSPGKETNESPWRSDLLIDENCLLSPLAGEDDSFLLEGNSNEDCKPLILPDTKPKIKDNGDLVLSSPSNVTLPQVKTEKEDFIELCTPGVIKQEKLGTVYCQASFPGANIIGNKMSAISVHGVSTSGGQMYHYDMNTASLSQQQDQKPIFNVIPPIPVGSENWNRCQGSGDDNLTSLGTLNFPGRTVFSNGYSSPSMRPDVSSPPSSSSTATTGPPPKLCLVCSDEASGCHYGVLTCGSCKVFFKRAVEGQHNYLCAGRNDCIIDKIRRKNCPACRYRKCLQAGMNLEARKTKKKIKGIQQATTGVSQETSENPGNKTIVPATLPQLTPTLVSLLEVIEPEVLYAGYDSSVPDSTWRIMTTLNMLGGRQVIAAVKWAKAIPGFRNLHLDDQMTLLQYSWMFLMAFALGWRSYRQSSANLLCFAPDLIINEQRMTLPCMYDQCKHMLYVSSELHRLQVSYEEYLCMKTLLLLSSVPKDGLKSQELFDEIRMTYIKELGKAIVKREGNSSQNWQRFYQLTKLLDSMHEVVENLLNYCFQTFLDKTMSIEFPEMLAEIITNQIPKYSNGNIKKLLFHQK

[7] = target: T5, Oxysterols receptor LXR-alpha (Homo sapiens) (UniProt Q13133); test: Transactivation of recombinant human GST-tagged LXRalpha-LBD at 10 uM by TR-FRET assay
T5 sequence (whole entry): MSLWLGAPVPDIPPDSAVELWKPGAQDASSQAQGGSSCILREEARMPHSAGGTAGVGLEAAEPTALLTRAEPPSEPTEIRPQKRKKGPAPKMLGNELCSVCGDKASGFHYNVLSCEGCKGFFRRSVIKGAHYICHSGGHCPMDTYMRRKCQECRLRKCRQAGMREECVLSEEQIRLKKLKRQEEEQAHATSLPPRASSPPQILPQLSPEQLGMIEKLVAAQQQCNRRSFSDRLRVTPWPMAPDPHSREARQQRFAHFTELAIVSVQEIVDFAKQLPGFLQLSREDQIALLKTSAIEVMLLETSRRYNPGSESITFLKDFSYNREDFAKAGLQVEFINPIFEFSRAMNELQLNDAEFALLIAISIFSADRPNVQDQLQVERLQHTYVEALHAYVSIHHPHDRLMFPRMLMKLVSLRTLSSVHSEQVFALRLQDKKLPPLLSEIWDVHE

[8] = target: T6, Oxysterols receptor LXR-beta (Homo sapiens) (UniProt P55055); test: Transactivation of LXRbeta (unknown origin) at 10 uM by TR-FRET assay
T6 sequence (whole entry): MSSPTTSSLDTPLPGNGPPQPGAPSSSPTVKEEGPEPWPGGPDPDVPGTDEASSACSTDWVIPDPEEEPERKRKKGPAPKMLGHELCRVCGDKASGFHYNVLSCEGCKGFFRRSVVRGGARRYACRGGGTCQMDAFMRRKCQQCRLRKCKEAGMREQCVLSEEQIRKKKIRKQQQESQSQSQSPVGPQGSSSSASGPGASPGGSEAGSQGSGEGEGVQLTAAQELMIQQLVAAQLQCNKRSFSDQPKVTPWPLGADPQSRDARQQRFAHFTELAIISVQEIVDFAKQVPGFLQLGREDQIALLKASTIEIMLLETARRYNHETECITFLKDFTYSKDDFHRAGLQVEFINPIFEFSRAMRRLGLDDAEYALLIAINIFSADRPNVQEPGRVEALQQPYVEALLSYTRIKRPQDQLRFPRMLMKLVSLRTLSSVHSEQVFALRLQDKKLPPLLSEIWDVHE

[9] = target: T7, Peroxisome proliferator-activated receptor gamma (Homo sapiens, UniProt P37231); test: Displacement of fluormone Pan-PPAR Green from human GST-tagged PPARgamma-LBD by TR-FRET assay
T7 sequence (P37231 whole entry): T1 sequence (whole entry)

[10] = target: T1, Peroxisome proliferator-activated receptor gamma (Homo sapiens); test: Partial agonist activity at PPARgamma in human bone marrow-derived mesenchymal stem cells assessed as inhibition of troglitazone-induced upregulation of PPARgamma mRNA level at 3 to 10 uM measured on day 3 in presence of IDX by qRT-PCR analysis
[11] = target: T1, Peroxisome proliferator-activated receptor gamma (Homo sapiens); test: Partial agonist activity at PPARgamma in human bone marrow-derived mesenchymal stem cells assessed as inhibition of troglitazone-induced upregulation of adiponectin mRNA level at 3 to 10 uM measured on day 3 in presence of IDX by qRT-PCR analysis
[12] = target: T1, Peroxisome proliferator-activated receptor gamma (Homo sapiens); test: Partial agonist activity at PPARgamma in human bone marrow-derived mesenchymal stem cells assessed as inhibition of troglitazone-induced upregulation of FABP4 mRNA level at 3 to 10 uM measured on day 3 in presence of IDX by qRT-PCR analysis
[13] = target: T1, Peroxisome proliferator-activated receptor gamma (Homo sapiens); test: Partial agonist activity at PPARgamma in human bone marrow-derived mesenchymal stem cells assessed as inhibition of troglitazone-induced increase in adiponectin level at 3 to 10 uM measured on day 5 in presence of IDX by ELISA
Homo sapiens [14] = organism: Homo sapiens; test: Induction of adipogenesis in human bone marrow-derived mesenchymal stem cells assessed as increase in adiponectin production at 60 uM measured on day 5 in presence of IDX by ELISA; assay type: functional
[15] = target: T1, Peroxisome proliferator-activated receptor gamma (Homo sapiens); test: Displacement of fluormone Pan-PPAR Green from human GST-tagged PPARgamma-LBD at 30 uM by TR-FRET assay relative to control
[16] = target: T2, Peroxisome proliferator-activated receptor alpha (Homo sapiens); test: Displacement of fluormone Pan-PPAR Green from human GST-tagged PPARalpha-LBD at 30 uM by TR-FRET assay
[17] = target: T3, Peroxisome proliferator-activated receptor delta (Homo sapiens); test: Displacement of fluormone Pan-PPAR Green from human GST-tagged PPARdelta-LBD at 30 uM by TR-FRET assay
[18] = target: T4, Glucocorticoid receptor (Homo sapiens); test: Displacement of fluormone GS1 from human GST-tagged glucocorticoid receptor-LBD at 30 uM by TR-FRET assay
[19] = target: T5, Oxysterols receptor LXR-alpha (Homo sapiens); test: Transactivation of recombinant human GST-tagged LXRalpha-LBD at 30 uM by TR-FRET assay
[20] = target: T6, Oxysterols receptor LXR-beta (Homo sapiens); test: Transactivation of LXRbeta (unknown origin) at 30 uM by TR-FRET assay
Homo sapiens [21] = organism: Homo sapiens; test: Induction of adipogenesis in human bone marrow-derived mesenchymal stem cells assessed as increase in adiponectin production at 10 uM measured on day 5 in presence of IDX by ELISA; assay type: functional
Homo sapiens [22] = organism: Homo sapiens; test: Induction of adipogenesis in human bone marrow-derived mesenchymal stem cells assessed as increase in adiponectin production at 100 uM measured on day 5 in presence of IDX by ELISA; assay type: functional
Homo sapiens [23] = organism: Homo sapiens; test: Induction of adipogenesis in human bone marrow-derived mesenchymal stem cells assessed as increase in adiponectin production at 1 uM measured on day 5 in presence of IDX by ELISA; assay type: functional

Activity [3]: 58% | Activity [4]: inactive | Activity [5]: inactive | Activity [6]: inactive | Activity [7]: inactive | Activity [8]: inactive | Ki [9]: 7.1 µM | inhibition [10]: Active | inhibition [11]: Active | inhibition [12]: Active | inhibition [13]: Active
SMILES: O=CN1CCc2c([nH]c3ccccc23)C1c1cccc2cccnc12 (stereo not drawn)
Activity (Homo sapiens [1]): Dose-dependent effect | Activity (Homo sapiens [2]): Active

Activity [15]: 24 to 36% | Activity [16]: inactive | Activity [17]: inactive | Activity [18]: inactive | Activity [19]: inactive | Activity [20]: inactive
SMILES: c1cnc2c(C3NCCc4c3[nH]c3ccccc43)cccc2c1 (stereo not drawn)
Activity (Homo sapiens [14]): Active

SMILES: COc1ccc(Cl)cc1C(=O)NCCc1ccc(S(=O)(=O)NC(=O)NC2CCCCC2)cc1
Activity (Homo sapiens [21]): Active

SMILES: CC(=O)Oc1ccccc1C(=O)O
Activity (Homo sapiens [22]): Active

SMILES: Cc1c(C)c2c(c(C)c1O)CCC(C)(COc1ccc(CC3SC(=O)NC3=O)cc1)O2 (stereo not drawn)
Activity (Homo sapiens [23]): Active
